For 44 molecules, melting point results are on record in patent publication US7230011B2, “Benzenesulfonic acid indol-5-yl esters as antagonists of the 5ht6 receptor” (Eli Lilly and Company, priority 2002, dated 2007).

Molecules are shown by their SMILES. Structures can show the parent of a compound that is named as a salt.

A word on the melting point: it is the temperature, or range, at which the solid turns liquid.

With `CN1CCC(c2cn(CCCc3ccccc3)c3ccc(OS(=O)(=O)c4ccccc4)cc23)CC1.O=C(O)C(=O)O`, the melting point is 188 to 191 °C. Next, `CCCS(=O)(=O)n1cc(C2CCN(C)CC2)c2cc(OS(=O)(=O)c3ccccc3)ccc21.O=C(O)C(=O)O`: 139 to 142 °C; `CC(C)S(=O)(=O)n1cc(C2CCN(C)CC2)c2cc(OS(=O)(=O)c3ccccc3)ccc21.O=C(O)C(=O)O`: 134 to 138 °C; `CCS(=O)(=O)n1cc(C2CCN(C)CC2)c2cc(OS(=O)(=O)c3ccccc3)ccc21.O=C(O)C(=O)O`: 121 to 126 °C. The same measure for `CN1CCC(c2cn(S(C)(=O)=O)c3ccc(OS(=O)(=O)c4ccccc4)cc23)CC1.O=C(O)C(=O)O`: 95 to 99 °C; for `CN1CCC(c2cn(S(=O)(=O)Cc3ccccc3)c3ccc(OS(=O)(=O)c4ccccc4)cc23)CC1.O=C(O)C(=O)O`: 120 to 124 °C; for `CN1CCC(c2cn(S(=O)(=O)c3cccc4ccccc34)c3ccc(OS(=O)(=O)c4ccccc4)cc23)CC1.O=C(O)C(=O)O`: 121 to 125 °C.

For `CCCCn1cc(C2CCN(C)CC2)c2cc(OS(=O)(=O)c3ccccc3)ccc21.O=C(O)C(=O)O`, the melting point fell in the range of 193 to 198 °C. Next, `CN1CCC(c2cn(Cc3ccc(F)cc3)c3ccc(OS(=O)(=O)c4ccccc4)cc23)CC1.O=C(O)C(=O)O`: 181 to 184 °C; `CN1CCC(c2cn(Cc3ccc(F)cc3F)c3ccc(OS(=O)(=O)c4ccccc4)cc23)CC1.O=C(O)C(=O)O`: 141 to 144 °C; `CN1CCC(c2cn(Cc3ccccc3)c3ccc(OS(=O)(=O)c4ccccc4)cc23)CC1.Cl`: 227 to 230 °C.

For the molecule `CN1CCC(c2cn(Cc3ccccc3F)c3ccc(OS(=O)(=O)c4ccccc4)cc23)CC1.Cl`, the melting point lay in the range of 222 to 224 °C. For `CN1CCC(c2cn(Cc3cccc(F)c3)c3ccc(OS(=O)(=O)c4ccccc4)cc23)CC1.Cl`, the melting point was 103 to 105 °C. Consider `CC(C)Cn1cc(C2CCN(C)CC2)c2cc(OS(=O)(=O)c3ccccc3)ccc21.Cl`, for which the melting point lay in the range of 188 to 191 °C. Next, `CN1CCC(c2cn(CCCCc3ccccc3)c3ccc(OS(=O)(=O)c4ccccc4)cc23)CC1.Cl`: 158 to 161 °C.

`CC(C)n1cc(C2CCN(C)CC2)c2cc(OS(=O)(=O)c3ccccc3)ccc21.O=C(O)C(=O)O` came in with a melting point of 103 to 107 °C. `CN1CCC(c2cn(C3CCCC3)c3ccc(OS(=O)(=O)c4ccccc4)cc23)CC1.O=C(O)C(=O)O`: the melting point lay within 202 to 205 °C. Next, `CCCCn1cc(C2CCN(C)CC2)c2cc(OS(=O)(=O)c3ccccc3)ccc21.Cl`: 169 to 172 °C. Next, `CCCn1cc(C2CCN(C)CC2)c2cc(OS(=O)(=O)c3c(F)cccc3F)ccc21.O=C(O)C(=O)O`: 185 to 189 °C; `CN1CCC(c2cn(Cc3ccc(F)cc3)c3ccc(OS(=O)(=O)c4ccccc4)cc23)CC1.Cl`: 169 to 172 °C; `CN1CCC(c2c3n(c4ccc(OS(=O)(=O)c5c(F)cccc5F)cc24)CCC3)CC1.Cl`: 149 °C. The same measure for `CCn1cc(C2CCN(C)CC2)c2cc(OS(=O)(=O)c3ccccc3)ccc21.O=C(O)C(=O)O`: 127 to 130 °C. For the molecule `CN1CC=C(c2c[nH]c3ccc(OS(=O)(=O)c4c(F)cccc4F)cc23)CC1`, the melting point is 183 °C (dec.). `CN1CC=C(c2c[nH]c3ccc(OS(=O)(=O)c4ccccc4)cc23)CC1`: the melting point lay in the range of 186 to 190 °C. In turn, `CN1CCC(c2cn(CCc3ccccc3)c3ccc(OS(=O)(=O)c4c(F)cccc4F)cc23)CC1.Cl` returned a melting point of 209 to 212 °C. The same measure for `CN1CCC(c2cn(Cc3ccc(F)cc3)c3ccc(OS(=O)(=O)c4c(F)cccc4F)cc23)CC1.Cl`: 114 to 118 °C; for `CCCn1cc(C2CCN(C)CC2)c2cc(OS(=O)(=O)c3ccccc3)ccc21.Cl`: 194 to 197 °C; for `CN1CCC(c2cn(Cc3ccccc3)c3ccc(OS(=O)(=O)c4c(F)cccc4F)cc23)CC1.Cl`: 225 to 227 °C.

Consider `CN1CCC(c2cn(C)c3ccc(OS(=O)(=O)c4c(F)cccc4F)cc23)CC1.O=C(O)C(=O)O`, for which the melting point was 195 to 198 °C (dec.). Take `CN1CCC(c2c[nH]c3ccc(OS(=O)(=O)c4ccc(NS(C)(=O)=O)cc4)cc23)CC1.Cl`: the melting point was 238 °C (dec.). The same measure for `CN1CCC(c2cn(C)c3ccc(OS(=O)(=O)c4ccccc4)cc23)CC1.O=C(O)C(=O)O`: 135 to 142 °C; for `CN1CCC(c2c3n(c4ccc(OS(=O)(=O)c5ccccc5)cc24)CCC3)CC1.Cl`: 202 to 204 °C.

In turn, `CCn1cc(C2CCN(C)CC2)c2cc(OS(=O)(=O)c3c(F)cccc3F)ccc21.O=C(O)C(=O)O` came in with a melting point of 161 to 165 °C. Next, `CN1CCC(c2cn(Cc3ccccc3)c3ccc(OS(=O)(=O)c4c(F)cccc4F)cc23)CC1.O=C(O)C(=O)O`: 205 to 208 °C; `CN1CCC(c2cn(CCc3ccccc3)c3ccc(OS(=O)(=O)c4ccccc4)cc23)CC1.O=C(O)C(=O)O`: 208 to 212 °C. Next, `CCCn1cc(C2=CCN(C)CC2)c2cc(OS(=O)(=O)c3ccccc3)ccc21` (as salt: hydrochloride): 170 to 174 °C; `Cc1[nH]c2ccc(OS(=O)(=O)c3c(F)cccc3F)cc2c1C1CCN(C)CC1` (as salt: hydrochloride) [Example 31, 2,6-Difluorobenzenesulfonic acid 2-methyl-3-(1-methylpiperidin-4-yl)-1H-indol-5-yl ester]: 138 °C (dec.); `CN1CCC(c2c[nH]c3ccc(OS(=O)(=O)c4c(F)cccc4F)cc23)CC1` [47]: 235 to 238 °C. Next, `CN1CCC(c2c[nH]c3cc(F)c(OS(=O)(=O)c4c(F)cccc4F)cc23)CC1` [Example 32, 2,6-Difluorobenzenesulfonic acid 6-fluoro-3-(1-methylpiperidin-4-yl)-1H-indol-5-yl ester]: 202 °C. In turn, `CN1CCC(c2c[nH]c3ccc(OS(=O)(=O)c4ccccc4)cc23)CC1` [Example 34, Benzenesulfonic acid 3-(1-methylpiperidin-4-yl)-1H-indol-5-yl ester] showed a melting point of 192 to 194 °C. Next, `CN1CCC(c2c[nH]c3ccc(OS(=O)(=O)c4ccc(F)cc4F)cc23)CC1` [Example 35, 2,4-Difluorobenzenesulfonic acid 3-(1-methylpiperidin-4-yl)-1H-indol-5-yl ester]: 163 to 164 °C; `CN1CCC(c2c[nH]c3ccc(OS(=O)(=O)c4ccc(I)cc4)cc23)CC1` [Example 36, 4-Iodobenzenesulfonic acid 3-(1-methylpiperidin-4-yl)-1H-indol-5-yl ester]: 174 to 176 °C. `CN1CCC(c2c[nH]c3ccc(OS(=O)(=O)c4ccc(Cl)cc4)cc23)CC1` [Example 37, 4-Chlorobenzenesulfonic acid 3-(1-methylpiperidin-4-yl)-1H-indol-5-yl ester]: the melting point was in the range of 182 to 183.5 °C.

In the case of `COc1ccc(S(=O)(=O)Oc2ccc3[nH]cc(C4CCN(C)CC4)c3c2)cc1` [Example 38, 4-Methoxybenzenesulfonic acid 3-(1-methylpiperidin-4-yl)-1H-indol-5-yl ester], the melting point lay within 186 to 187 °C.
